Structures are written as SMILES. In brackets after ≈: the same amount, converted by molar mass. Read-outs that look alike come from different tables or passages of the source.

The results in this text go back to article PMC11575505 (Chemical Science, 2024).

Data set [1] relates to FOXO1 KTR translocation in A2058 cells. Briefly: FOXO1 KTR translocation. The class given is cell-based.
Data set [2] deals with FOXO1 KTR translocation in T47D cells. Kind of data set: FOXO1 KTR translocation. As to conditions: for time to import of FOXO1-KTR into the nucleus: 3 μM, live cell imaging. The class given is cell-based.
Data set [3] concerns PKB phosphorylation (Ser473) in T47D, MCF7, PC3 and A2058 cells. Briefly: Washout, pPKB in-cell western. Type of data set: cell-based.
Another data set can be described thus: Kinetic solubility. The class given is physicochemical. The note with it: for solubility at 2 h: PBS buffer, 25 °C, pH 7.4, aqueous buffer, kinetic from dmso stock.
In data set [4] the test system is PKB/Akt phosphorylation (Ser473) in T47D cells. Briefly: pPKB/Akt in-cell western. Type of data set: cell-based. As to conditions: 1 h; for prevention of PKB phosphorylation: 3 μM to 0.8 nM.
The subject of data set [5] is PKB/Akt phosphorylation (Ser473) in MCF7 cells. Briefly: pPKB/Akt in-cell western. The note with it: MCF7, 1 h; for prevention of PKB phosphorylation: 3 μM to 0.8 nM. Type of data set: cell-based.
In data set [6] the test system is PKB/Akt phosphorylation (Ser473) in SKOV3 cells. Briefly: pPKB/Akt in-cell western. Type of data set: cell-based. The note with it: read-out: pPKB/Akt IC50, 1 h of compound exposure.
Data set [7] is described as follows: Intrinsic warhead reactivity. Type of data set: physicochemical. As to conditions: 1 mM compound, 600 mM βME, 37 °C.
For another data set, the target named is Nanoluc-p110α fusion (Homo sapiens, UniProt P42336). Kind of data set: NanoBRET tracer displacement / diffusion assay in HEK293 cells. The class given is cell-based. The note with it: for increase in cellular permeability versus BYL719: diffusion coefficients.
The subject of data set [8] is PKB phosphorylation (Ser473) in MDA-MB-453, T47D and MCF7 cells. Briefly: Washout, pPKB in-cell western. As to conditions: 1 μM for 2 h then washout. Type of data set: cell-based.
The subject of a further data set is PI3Kα-mutant cell lines. Kind of data set: Growth rate inhibition, panel comparison. Type of data set: cell-based. As to conditions: 72 h incubation, GR50.
Another data set relates to PI3Kα mutant cell lines. Briefly: Growth rate on intermittent exposure. Type of data set: cell-based. As to conditions: 1 μM for 4 h daily over 4 days.
The test system of another data set is p110α. Briefly: p110α protein levels by western blot. Type of data set: cell-based. The note with it: 1 μM for 48 h.
The test system of data set [9] is PI3K signaling (pPKB Ser473) in serum-starved MCF7 cells. Briefly: Receptor ligand stimulated pPKB after washout, western blot. Type of data set: cell-based. As to conditions: for inhibition at 1 µM: Homo sapiens, MCF7, 2 h.

Nanoluc-p110α fusion, sequence (P42336 whole entry, the tested form may be a part): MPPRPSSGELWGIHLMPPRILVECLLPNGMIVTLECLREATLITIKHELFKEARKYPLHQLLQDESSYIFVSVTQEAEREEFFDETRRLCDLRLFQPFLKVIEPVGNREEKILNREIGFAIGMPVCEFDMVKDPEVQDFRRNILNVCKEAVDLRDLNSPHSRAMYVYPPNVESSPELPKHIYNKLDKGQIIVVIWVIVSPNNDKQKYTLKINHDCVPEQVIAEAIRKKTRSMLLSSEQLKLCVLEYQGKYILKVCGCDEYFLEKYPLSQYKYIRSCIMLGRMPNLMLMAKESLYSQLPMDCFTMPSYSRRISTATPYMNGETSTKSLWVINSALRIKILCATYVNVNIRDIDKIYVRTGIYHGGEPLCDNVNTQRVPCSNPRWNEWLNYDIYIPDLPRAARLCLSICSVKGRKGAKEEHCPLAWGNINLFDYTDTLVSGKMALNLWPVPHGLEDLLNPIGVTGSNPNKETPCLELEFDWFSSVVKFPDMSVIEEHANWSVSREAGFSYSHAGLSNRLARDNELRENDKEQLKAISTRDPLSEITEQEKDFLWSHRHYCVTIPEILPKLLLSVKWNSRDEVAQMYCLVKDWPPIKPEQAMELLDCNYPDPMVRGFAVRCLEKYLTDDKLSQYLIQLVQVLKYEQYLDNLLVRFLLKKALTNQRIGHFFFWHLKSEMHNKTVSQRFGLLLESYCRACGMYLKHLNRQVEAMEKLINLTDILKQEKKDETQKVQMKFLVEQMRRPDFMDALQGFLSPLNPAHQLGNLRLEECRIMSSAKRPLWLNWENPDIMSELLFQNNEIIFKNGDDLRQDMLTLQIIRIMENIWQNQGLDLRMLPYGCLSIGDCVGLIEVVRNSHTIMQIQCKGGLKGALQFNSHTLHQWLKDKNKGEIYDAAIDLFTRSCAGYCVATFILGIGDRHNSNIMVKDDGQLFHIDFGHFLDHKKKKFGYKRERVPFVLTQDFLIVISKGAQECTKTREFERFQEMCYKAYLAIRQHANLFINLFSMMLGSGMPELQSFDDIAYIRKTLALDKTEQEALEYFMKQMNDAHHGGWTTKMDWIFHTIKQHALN
Nanoluc-p110α fusion, sequence (P27986 whole entry partner, the tested form may be a part): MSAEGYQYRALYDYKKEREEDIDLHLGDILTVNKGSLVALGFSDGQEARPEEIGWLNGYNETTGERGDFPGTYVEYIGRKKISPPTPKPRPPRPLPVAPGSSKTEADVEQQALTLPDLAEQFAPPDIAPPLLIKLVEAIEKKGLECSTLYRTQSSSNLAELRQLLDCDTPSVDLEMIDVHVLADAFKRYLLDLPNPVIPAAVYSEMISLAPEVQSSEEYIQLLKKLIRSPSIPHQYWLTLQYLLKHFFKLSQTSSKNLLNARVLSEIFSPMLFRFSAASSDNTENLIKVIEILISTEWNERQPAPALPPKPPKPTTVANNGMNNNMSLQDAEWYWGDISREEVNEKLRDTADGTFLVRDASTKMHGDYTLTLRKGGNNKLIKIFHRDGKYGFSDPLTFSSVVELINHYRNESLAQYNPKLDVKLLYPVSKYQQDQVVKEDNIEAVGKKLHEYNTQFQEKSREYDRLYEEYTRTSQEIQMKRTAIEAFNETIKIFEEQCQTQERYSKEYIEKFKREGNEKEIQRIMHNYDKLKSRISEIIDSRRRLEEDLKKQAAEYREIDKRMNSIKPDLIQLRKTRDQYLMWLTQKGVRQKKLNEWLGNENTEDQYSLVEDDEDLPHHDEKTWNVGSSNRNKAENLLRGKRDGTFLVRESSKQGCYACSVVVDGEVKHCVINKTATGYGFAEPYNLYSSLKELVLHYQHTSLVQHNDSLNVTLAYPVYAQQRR

Take `Cc1nc(NC(=O)N2CCC[C@H]2C(N)=O)sc1-c1ccnc(C(C)(C)C(F)(F)F)c1` [BYL719, reference compound]: in [1] (A2058, 1 h incubation), the “FOXO1-KTR nuclear translocation IC90” value is “completely ineffective”. Besides, the “time to import of FOXO1-KTR into the nucleus” value in data set [2] is recorded as less than 20 min. Further, the “FOXO1-KTR nuclear import IC90” value in data set [2] (1 h incubation) is recorded as “not able to induce full nuclear translocation”. The “reactivation of PI3K/PKB signaling after removal of inhibitor” value in data set [3] (all cell lines, 2 h incubation then washout) is listed as “reactivated PI3K/PBK signaling within the first hour”. Also, the solubility at 2 h in “Kinetic solubility” came out at 49 µM (≈ 21.6 µg/mL).
Regarding `CC[C@H](Nc1ncnc2[nH]cnc12)c1nc2cccc(F)c2c(=O)n1-c1ccccc1` [CAL101], the “prevention of PKB phosphorylation” value in [4] and in data set [5] was “did not prevent PKB phosphorylation” each time.
Turning to `CC(C)=CC(=O)CCC(=O)N1CCN(Cc2cc3nc(-c4cccc5[nH]ncc45)nc(N4CCOCC4)c3s2)CC1` [CNX1351, reference compound], the IC50 in [6] is 172 nM. Besides, the “k chem × 10^4” value in data set [7] worked out at 2.2 M^−1 s^−1. The molecule further displayed a Solubility in the data set “Kinetic solubility” (kinetic solubility at pH 7.4 in PBS) of 10 µM (≈ 5.74 µg/mL).
Turning to `C=CC(=O)N1CCC(C(=O)NCC(=O)N2CCN(c3nc(-c4cnc(N)nc4C(F)F)nc(N4CCOCC4)n3)CC2)CC1` [Compound 1], in data set [6], the IC50 is 86 nM. This molecule displayed a solubility at 2 h in the data set “Kinetic solubility” of 333 µM (≈ 205 µg/mL).
The corresponding values for `C=CC(=O)N1CCC(C(=O)N(C)CC(=O)N2CCN(c3nc(-c4cnc(N)nc4C(F)F)nc(N4CCOCC4)n3)CC2)CC1` [Compound 2] are 82 nM and 383 µM (≈ 241 µg/mL).
As for `C=CC(=O)N1CCC(CN(C)CC(=O)N2CCN(c3nc(-c4cnc(N)nc4C(F)F)nc(N4CCOCC4)n3)CC2)CC1` [Compound 3], the IC50 in [6] worked out at 38 nM. In the data set “Kinetic solubility”, this molecule yielded a solubility at 2 h of 363 µM (≈ 223 µg/mL).
Turning to `C=CC(=O)N1CCC(C(=O)NCCN2CCN(c3nc(-c4cnc(N)nc4C(F)F)nc(N4CCOCC4)n3)CC2)CC1` [Compound 4], the IC50 in [6] was determined as 69 nM. Also, in [7], the “k chem × 10^4” value is reported as ~5.2 ^e M^−1 s^−1.
Regarding `C=CC(=O)N1CCC(CCCC(=O)N2CCN(c3nc(-c4cnc(N)nc4C(F)F)nc(N4CCOCC4)n3)CC2)CC1` [Compound 7], the “time to nuclear FOXO1 KTR localization” value in [1] (A2058, 3 μM, live cell imaging) is reported as more than 40 min. Also, the IC90 in [1] (Homo sapiens, A2058, 1 h, read-out: FOXO1-KTR nuclear translocation IC90) was 1660 nM; in data set [2] (Homo sapiens, 1 h, read-out: FOXO1-KTR nuclear import IC90), 50 nM. In data set [6], the IC50 turned out to be 22 nM. For the same molecule, the “better cellular potency (lower pPKB IC50) as compared to BYL719” value is given as 5 fold in data set [4] and 8 fold in [5]. The “persistence of nuclear FOXO1-KTR localization after washout” value in data set [2] (3 μM then washout) is more than 10 h. The “time to import of FOXO1-KTR into the nucleus” value in data set [2] is on record as less than 20 min. In addition, the “PI3K/PKB signaling after washout” value in data set [3] (PTEN-deficient cell lines) is approximately 50%. In data set [3] (T47D and MCF7 cells, 3 μM for 2 h then washout), the “duration of pathway inhibition after washout” value was more than 18 h.
In the case of `C=CC(=O)N1CCC(COCC(=O)N2CCN(c3nc(-c4cnc(N)nc4C(F)F)nc(N4CCOCC4)n3)CC2)CC1` [Compound 8], in data set [6], the IC50 came to 19 nM. Moreover, the “increase in cellular permeability versus BYL719” value (from here on “increase”) on Nanoluc-p110α fusion was 2- to 3 fold.
Take `C=CC(=O)N1CCC(COCC(=O)N2CCN(c3nc(-c4cnc(N)nc4C(F)F)nc(N4CCOC[C@@H]4C)n3)CC2)CC1` [Compound 9]: in data set [8], the “duration of loss of detectable pPKB after washout” value is “up to 72 h”. The IC50 in [6] is 19 nM. The “more potent growth inhibition than reference compounds BYL719 and GDC-0077” value in the data set with PI3Kα-mutant cell lines was 2- to 273 fold. For the same molecule, the “more potent than the reversible analogue 9r” value in the data set on PI3Kα-mutant cell lines is reported as 6- to 70 fold. This molecule also registered a growth rate in the data set with PI3Kα mutant cell lines not above 0.5. Moreover, the “depletion of p110α” value in the data set on p110α (HCC1954 and MDA-MB-453 cells) is reported as “prominent, indistinguishable depletion of p110α”; in the data set on p110α (MCF7 and T47D cells), “insignificant”. The “increase” value at Nanoluc-p110α fusion is 2- to 3 fold. In addition, the “faster permeation into cells as compared to 7” value on Nanoluc-p110α fusion (human, 4 h) is recorded as “ca. 2.8 ×”. The results for the inhibition at 1 µM in data set [9] (read-out: inhibition of PI3K signaling in response to CXCL12) and in data set [9] (read-out: inhibition of PI3K signaling in response to EGF) were 91% and 98%, respectively. For the same molecule, the solubility at 2 h in “Kinetic solubility” worked out at 357 µM (≈ 220 µg/mL).
For `CCC(=O)N1CCC(COCC(=O)N2CCN(c3nc(-c4cnc(N)nc4C(F)F)nc(N4CCOC[C@@H]4C)n3)CC2)CC1` [Compound 9r], the “time to equilibrium of BRET signal decay” value on Nanoluc-p110α fusion (HEK293, 200 nM Tracer K-3) is listed as “ca. 20 min”. The “increase” value at Nanoluc-p110α fusion is given as 2- to 3 fold.
Regarding `C[C@H](Nc1ccc2c(c1)OCCn1cc(N3C(=O)OC[C@H]3C(F)F)nc1-2)C(N)=O` [GDC-0077, reference compound], the “depletion of p110α” value with p110α (HCC1954 and MDA-MB-453 cells) is recorded as “prominent, indistinguishable depletion of p110α”; in the data set with p110α (MCF7 and T47D cells), “insignificant”. This molecule gave a solubility at 2 h in the data set “Kinetic solubility” of 357 µM (≈ 145 µg/mL).
As to `C=CC(=O)N1CCC[C@@H](n2nc(-c3ccc(Oc4ccccc4)cc3)c3c(N)ncnc32)C1` [Ibrutinib, reference compound], the solubility at 2 h in the data set “Kinetic solubility” stood at 10 µM (≈ 4.41 µg/mL).
Take `Cc1cc(C(C)Nc2ccccc2)c2nc(N3CCOCC3)cc(=O)n2c1` (centres unmarked) [TGX221]: the “prevention of PKB phosphorylation” value in data set [4] is “did not prevent PKB phosphorylation”. In [9] (MCF7, TGX221 1 μM after 9-wo), the “suppression of the remaining PI3K signaling, CXCL12” value is given as 6%; the “suppression of the remaining PI3K signaling, EGF” value was 2%; the “suppression of the remaining PI3K signaling, insulin” value was found to be 12%. In addition, the “prevention of PKB phosphorylation” value in [5] is given as “did not prevent PKB phosphorylation”.
